# Laboratory results taken from patent publication US20050019854A1, “Novel method for screening inhibitors of the linkage between the neuronal nitric oxide synthase associated protein and the protein inhibiting neuronal nitric oxide synthase” (priority 2001, published 2005).
# Ends that are not written are not given here.
# B1: mutant nNOS peptide represented by sequence SEQ ID NO: 3 (Lys-Asp-Thr-Gly-Ile-Gln-Val-Asp-Trp-Asp) (peptide)
# peptide: KDTGIQVDWD
# notes: Synthetic 10-mer; It differs from the normal peptide by Arg to Trp at position 9
# B2: normal (non-mutant) nNOS peptide Lys Asp Thr Gly Ile Gln Val Asp Arg Asp (nNOS amino acids 229-238) (peptide)
# peptide: KDTGIQVDRD
# notes: Made by Fmoc solid phase synthesis; also called normal peptide; normal nNOS peptide
# Legend:
# PIN = target: T1, PIN (Rattus norvegicus, UniProt P63170); assay: Surface plasmon resonance analysis of PIN binding to immobilized nNOS peptides (Example 1)
# T1 construct: GST (N, cleaved yes); made in house; host or cells: E. coli BL21 (DE3), vector pGEX-2T
# [1] = target: T2, binding of the PIN to the nNOS (Rattus norvegicus, UniProt P63170); assay: Surface plasmon resonance analysis of inhibition of PIN binding to immobilized nNOS (Example 3); settings: for inhibition of the binding of the PIN to the nNOS: SPR
# T2 construct: catalogue number not given; host or cells: PIN: E. coli BL21 (DE3)
# [2] = target: T2, binding of the PIN to the nNOS; assay: ELISA: inhibition of the binding of GST-PIN to immobilized nNOS (Example 2, first method); settings: peptide 50 μg/ml
# [3] = system: islets of Langerhans of Zucker (fa/fa) rats; assay: Glucose-induced insulin secretion in isolated islets of Zucker (fa/fa) rats (Example 4); type: cell-based, rat; settings: 2 g/L glucose; for reduction of the insulin response: 1 hour
# Method: The islets of Langerhans of Zucker (fa/fa) rats are isolated using the collagenase digestion technique of Lacy et al. (Diabetes, 1967). After isolation, the islets are stabilized in Krebs-Ringer containing 0.75 g/L glucose for 45 minutes at 37° C. Groups of three islets are then incubated in Krebs-Ringer with 2 g/L glucose containing increasing concentrations of the molecule C24H18N4O5S (20-100 μM) for 1 hour at 37° C. The liquid supernatant is then recovered and insulin secretion measured by radioimmunology (see FIG. 8).
# [4] = target: T3, GST-PIN (PIN with a glutathione S-transferase tag in the N-terminal position) (rat, UniProt P63170 1-89); assay: competition ELISA, GST-PIN preincubated with peptide, nNOS immobilized
# T3 construct: Produced in E. coli BL21(DE3) and purified on glutathione sepharose; The thrombin linker between GST and PIN is not described; also called GST-tagged PIN; not shown: Glutathione S-transferase tag of vector pGEX-2T (Pharmacia), N-terminal
# [5] = target: T4, protein inhibitor of neuronal nitric oxide synthase (PIN), produced by thrombin digestion of GST-PIN (rat, UniProt P63170 1-89); assay: SPR competition, PIN preincubated with peptide, nNOS immobilized
# T4 construct: Released from GST-PIN (vector pGEX-2T) by thrombin digestion; also called PIN protein
# [6] = target: T3, GST-PIN (PIN with a glutathione …); assay: competition ELISA, GST-PIN preincubated with 50 µg/ml peptide, nNOS immobilized
# [7] = target: T4, protein inhibitor of neuronal nitric …; assay: SPR (BIAcore 2000), peptide immobilized, reference is the normal nNOS peptide
# T1 sequence (P63170 whole entry): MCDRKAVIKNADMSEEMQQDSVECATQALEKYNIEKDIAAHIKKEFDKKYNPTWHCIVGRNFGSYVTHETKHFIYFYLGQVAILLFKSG
# T3 sequence (P63170 whole entry): as above
# T2 sequence (P63170 whole entry): as above
# T4 sequence (P63170 whole entry): as above
molecule,measurement,setting,value
KDTGIQVDWD [SEQ ID NO: 3],Ka (association constant) of PIN for immobilized peptide,"PIN; BIAcore, PIN 5-40 μg/ml, global analysis",1.86×10^8
same,Kd,"PIN; BIAcore, PIN 5-40 μg/ml, global analysis, read-out: Kd (dissociation constant) of PIN for immobilized peptide",0.00538 µM
same,affinity of the PIN protein for the mutant peptide relative to the normal peptide,"PIN; SPR, ratio vs normal peptide",two times greater
same,IC50,"[1]; SPR inhibition curves, FIG. 7D, read-out: inhibition constant (Ki: IC50)",4 µM
same,inhibition of the binding of the PIN to the nNOS,[1]; peptide 5 μg/ml,59%
same,inhibition of the binding of the PIN to the nNOS,[1]; peptide 30 μg/ml,90%
same,inhibition of the binding of the PIN to the nNOS,[1]; peptide 40 μg/ml,91%
same,inhibition of the binding of the PIN to the nNOS,[2],up to 71%
CCOc1ccc(N2C(=O)NC(=O)/C(=C\c3ccc(Sc4nc5ccccc5[nH]4)o3)C2=O)cc1 [C24H18N4O5S],concentration from which insulin secretion is blocked in a dose-dependant fashion,[3]; tested 20-100 μM,≥ 50 µM
same,reduction of the insulin response,[3]; molecule 50 μM,36%
same,reduction of the insulin response,[3]; molecule 100 μM,79%
CC[C@H](C)[C@H](N)C(=O)N[C@@H](CC(=O)O)C(=O)N[C@H](C(=O)NCC(=O)N[C@H](C(=O)N[C@@H](CCC(N)=O)C(=O)N[C@H](C(=O)N[C@@H](CC(=O)O)C(=O)N[C@@H](Cc1c[nH]c2ccccc12)C(=O)N[C@@H](CC(=O)O)C(=O)O)C(C)C)[C@@H](C)CC)C(C)C [SEQ ID NO: 4],inhibition of the binding of the PIN to the nNOS,[1]; peptide 1 μg/ml,75%
same,inhibition of the binding of the PIN to the nNOS,[1]; peptide 10 μg/ml,98%
same,inhibition of the binding of the PIN to the nNOS,[2],≤ 78%
IDVGIQVDWD (Synthetic 10-mer) [mutant nNOS peptide represented by sequence SEQ ID NO: 4 (Ile-Asp-Val-Gly-Ile-Gln-Val-Asp-Trp-Asp)],IC50,[4],0.5 µM
same,IC50,[5],0.4 µM
same,percent inhibition of PIN-nNOS binding,[6],78%
B1,IC50,[4],5 µM
same,fold affinity against the normal peptide,[7],2 fold
same,percent inhibition of PIN-nNOS binding,[6],71%
B2,IC50,[4],300 µM
same,percent inhibition of PIN-nNOS binding,[6],14%
